Experimental data as given in patent US11279687B2, “Compounds and compositions for the inhibition of NAMPT” (Valo Health, Inc., priority 2010, dated 2022).
Like-named read-outs stand apart in the source and are kept apart here.

Tests used:
NAMPT = NAMPT (Homo sapiens (Human), UniProt P43490); assay: NAMPT biochemical inhibition assay (NMN quantified by mass spectrometry); conditions: NAMPT biochemical inhibition; read-out: Biochem IC50
A2780 cells = assay: In-vitro cell proliferation assay (SRB), A2780 cells; format: cell-based; conditions: A2780 cells, 72 hours, SRB, read-out: A2780 IC50;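 further: viable cell number read as SRB absorbance, background from media-only wells subtracted, IC50 interpolated from percent inhibition at two bracketing compound concentrations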

Sequence of NAMPT (P43490 whole entry): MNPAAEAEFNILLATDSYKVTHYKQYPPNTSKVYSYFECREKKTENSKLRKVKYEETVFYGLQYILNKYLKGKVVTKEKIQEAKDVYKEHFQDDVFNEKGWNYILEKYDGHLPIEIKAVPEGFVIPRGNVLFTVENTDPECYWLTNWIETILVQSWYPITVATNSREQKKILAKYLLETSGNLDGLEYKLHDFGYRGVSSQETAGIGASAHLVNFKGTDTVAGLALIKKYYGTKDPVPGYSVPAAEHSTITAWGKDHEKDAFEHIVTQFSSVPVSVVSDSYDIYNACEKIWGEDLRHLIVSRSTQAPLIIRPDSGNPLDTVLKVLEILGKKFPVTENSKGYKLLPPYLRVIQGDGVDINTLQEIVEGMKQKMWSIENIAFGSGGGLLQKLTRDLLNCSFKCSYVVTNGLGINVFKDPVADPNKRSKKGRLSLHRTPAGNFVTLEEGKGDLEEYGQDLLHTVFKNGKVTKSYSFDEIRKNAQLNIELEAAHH

IC50 (NAMPT)	IC50 (A2780 cells; Homo sapiens, A2780, 72 h)	SMILES	IC50 (A2780 cells)
109 nM	27.1 nM	O=C(NCc1ccc2nccn2c1)c1ccc(S(=O)(=O)N2CC3CCC(C2)O3)cc1 [N-{imidazo[1,2-a]pyridin-6-ylmethyl}-4-{8-oxa-3-azabicyclo[3.2.1]octane-3-sulfonyl}benzamide]	
4 nM	546 nM	O=C(NCc1cccnc1)Nc1ccc(S(=O)(=O)c2cccc(F)c2F)cc1 [3-{4-[(2,3-difluorobenzene)sulfonyl]phenyl}-1-(pyridin-3-ylmethyl)urea]	
3 nM	34 nM	Cc1cccc(N2CCN(S(=O)(=O)c3ccc(NC(=O)NCc4cccnc4)cc3)C[C@@H]2C)c1 [3-{4-[(3S)-3-methyl-4-(3-methylphenyl)piperazine-1-sulfonyl]phenyl}-1-(pyridin-3-ylmethyl)urea]	
1.4 nM	3.3 nM	COc1ccc(C(F)(F)F)cc1S(=O)(=O)c1ccc(NC(=O)NCc2cccnc2)cc1 [3-(4-{[2-methoxy-5-(trifluoromethyl)benzene]sulfonyl}phenyl)-1-(pyridin-3-ylmethyl)urea]	
651 nM	1310 nM	O=C(Nc1ccncc1)c1ccc(S(=O)(=O)c2ccccc2)cc1 [4-(benzenesulfonyl)-N-(pyridin-4-yl)benzamide]	
6 nM	755 nM	Cc1cc(Cl)ccc1S(=O)(=O)c1ccc(NC(=O)NCc2cccnc2)cc1 [3-{4-[(4-chloro-2-methylbenzene)sulfonyl]phenyl}-1-(pyridin-3-ylmethyl)urea]	
1 nM	446 nM	O=C(NCc1cccnc1)Nc1ccc(S(=O)(=O)c2cccc(Cl)c2Cl)cc1 [3-{4-[(2,3-dichlorobenzene)sulfonyl]phenyl}-1-(pyridin-3-ylmethyl)urea]	
16 nM	100 to 1000 nM	O=C(NCc1cccnc1)Nc1ccc(S(=O)(=O)c2cccnc2N2CCOCC2)cc1 [1-{4-[2-(morpholin-4-yl)pyridine-3-sulfonyl]phenyl}-3-(pyridin-3-ylmethyl)urea]	
0.6 nM	31 nM	O=C(NCc1cccnc1)Nc1ccc(S(=O)(=O)Nc2ccccc2OC(F)F)cc1 [3-(4-{[2-(difluoromethoxy)phenyl]sulfamoyl}phenyl)-1-(pyridin-3-ylmethyl)urea]	
5 nM	420 nM	O=C(NCc1cccnc1)Nc1ccc(S(=O)(=O)c2ccc(OC(F)(F)F)cc2)cc1 [1-(pyridin-3-ylmethyl)-3-(4-{[4-(trifluoromethoxy)benzene]sulfonyl}phenyl)urea]	
51 nM	81 nM	O=C(NCc1cccnc1)Nc1ccc(S(=O)(=O)N2CCCC[C@@H]2CN2CCOCC2)cc1 [1-{4-[(2R)-2-(morpholin-4-ylmethyl)piperidine-1-sulfonyl]phenyl}-3-(pyridin-3-ylmethyl)urea]	
1 nM	322 nM	O=C(NCc1cccnc1)Nc1ccc(S(=O)(=O)c2ccc3c(c2)OCO3)cc1 [1-[4-(2H-1,3-benzodioxole-5-sulfonyl)phenyl]-3-(pyridin-3-ylmethyl)urea]	
2 nM	173 nM	COc1ccc(S(=O)(=O)c2ccc(NC(=O)NCc3cccnc3)cc2)cc1F [3-{4-[(3-fluoro-4-methoxybenzene)sulfonyl]phenyl}-1-(pyridin-3-ylmethyl)urea]	
5 nM	100 to 1000 nM	O=C(NCc1cccnc1)Nc1ccc(S(=O)(=O)c2cccc(C(=O)N3CCOCC3)c2)cc1 [1-[4-({3-[(morpholin-4-yl)carbonyl]benzene}sulfonyl)phenyl]-3-(pyridin-3-ylmethyl)urea]	
3.6 nM	30.4 nM	O=C(NCc1cccnc1)Nc1ccc(S(=O)(=O)c2ccc(N3CCOCC3)nc2)cc1 [1-{4-[6-(morpholin-4-yl)pyridine-3-sulfonyl]phenyl}-3-(pyridin-3-ylmethyl)urea]	
16 nM	111 nM	O=C(NCc1cccnc1)Nc1ccc(S(=O)(=O)N2CCc3ncccc3C2)cc1 [3-(pyridin-3-ylmethyl)-1-[4-(5,6,7,8-tetrahydro-1,6-naphthyridine-6-sulfonyl)phenyl]urea]	
5.5 nM	55 nM	O=C(NCc1cccnc1)Nc1ccc(S(=O)(=O)c2ccc(-n3cccn3)cc2)cc1 [1-(4-{[4-(1H-pyrazol-1-yl)benzene]sulfonyl}phenyl)-3-(pyridin-3-ylmethyl)urea]	
2 nM	157 nM	Cc1cccc(S(=O)(=O)c2ccc(NC(=O)NCc3cccnc3)cc2)c1 [3-{4-[(3-methylbenzene)sulfonyl]phenyl}-1-(pyridin-3-ylmethyl)urea]	
4 nM	105 nM	COc1cc(F)c(S(=O)(=O)c2ccc(NC(=O)NCc3cccnc3)cc2)cc1F [3-{4-[(2,5-difluoro-4-methoxybenzene)sulfonyl]phenyl}-1-(pyridin-3-ylmethyl)urea]	

IC50 (NAMPT)	IC50 (A2780 cells; Homo sapiens, A2780, 72 h)	SMILES	IC50 (A2780 cells)
4.6 nM	100 to 1000 nM	CCCOc1ccc(S(=O)(=O)c2ccc(NC(=O)NCc3cccnc3)cc2)cc1Cl [3-{4-[(3-chloro-4-propoxybenzene)sulfonyl]phenyl}-1-(pyridin-3-ylmethyl)urea]	
2.7 nM	17.9 nM	COc1cc(S(=O)(=O)c2ccc(NC(=O)NCc3cccnc3)cc2)ccc1C [3-{4-[(3-methoxy-4-methylbenzene)sulfonyl]phenyl}-1-(pyridin-3-ylmethyl)urea]	
3.9 nM	28.3 nM	CCOc1cc(S(=O)(=O)c2ccc(NC(=O)NCc3cccnc3)cc2)ccc1F [3-{4-[(3-ethoxy-4-fluorobenzene)sulfonyl]phenyl}-1-(pyridin-3-ylmethyl)urea]	
0.8 nM	0.3 nM	O=C(NCc1cccnc1)Nc1ccc(S(=O)(=O)N(Cc2ccccc2)Cc2ccccc2)cc1 [1-[4-(dibenzylsulfamoyl)phenyl]-3-(pyridin-3-ylmethyl)urea]	
2 nM	38 nM	CC(C)c1cccc(S(=O)(=O)c2ccc(NC(=O)NCc3cccnc3)cc2)c1 [3-(4-{[3-(propan-2-yl)benzene]sulfonyl}phenyl)-1-(pyridin-3-ylmethyl)urea]	
2 nM	78 nM	O=C(NCc1cccnc1)Nc1ccc(S(=O)(=O)N2CCC(CN3CCCC3=O)CC2)cc1 [1-(4-{4-[(2-oxopyrrolidin-1-yl)methyl]piperidine-1-sulfonyl}phenyl)-3-(pyridin-3-ylmethyl)urea]	
4 nM	148 nM	COc1cc(NS(=O)(=O)c2ccc(NC(=O)NCc3cccnc3)cc2)ccc1C [3-{4-[(3-methoxy-4-methylphenyl)sulfamoyl]phenyl}-1-(pyridin-3-ylmethyl)urea]	
8 nM	1000 to 10000 nM	NC(=O)c1cccc(S(=O)(=O)c2ccc(NC(=O)NCc3cccnc3)cc2)c1 [3-[(4-{[(pyridin-3-ylmethyl)carbamoyl]amino[benzene)sulfonyl]benzamide]	
3.6 nM	7.9 nM	O=C(NCc1cccnc1)Nc1ccc(S(=O)(=O)c2ccccc2CN2CCOCC2)cc1 [1-(4-{[2-(morpholin-4-ylmethyl)benzene]sulfonyl}phenyl)-3-(pyridin-3-ylmethyl)urea]	
2.5 nM	35.4 nM	Cn1ncc2ccc(S(=O)(=O)c3ccc(NC(=O)NCc4cccnc4)cc3)cc21 [3-[4-(1-methyl-1H-indazole-6-sulfonyl)phenyl]-1-(pyridin-3-ylmethyl)urea]	
10 nM	206 nM	O=C(NCc1cccnc1)Nc1ccc(S(=O)(=O)N2CCC(C(=O)c3ccc(F)cc3)CC2)cc1 [3-(4-{4-[(4-fluorophenyl)carbonyl]piperidine-1-sulfonyl}phenyl)-1-(pyridin-3-ylmethyl)urea]	
2 nM	30 nM	O=C(NCc1cccnc1)Nc1ccc(S(=O)(=O)Nc2cccc(Cl)c2Cl)cc1 [3-{4-[(2,3-dichlorophenyl)sulfamoyl]phenyl}-1-(pyridin-3-ylmethyl)urea]	
1.1 nM	107 nM	CN(Cc1ccccc1)S(=O)(=O)c1ccc(NC(=O)NCc2cccnc2)cc1 [3-{4-[benzyl(methyl)sulfamoyl]phenyl}-1-(pyridin-3-ylmethyl)urea]	
6 nM	122 nM	O=C(NCc1cccnc1)Nc1ccc(S(=O)(=O)Nc2ccc(Cl)c(Cl)c2)cc1 [3-{4-[(3,4-dichlorophenyl)sulfamoyl]phenyl]-1-(pyridin-3-ylmethyl)urea]	
3 nM	311 nM	COc1ccc(S(=O)(=O)c2ccc(NC(=O)NCc3cccnc3)cc2)c(F)c1 [3-{4-[(2-fluoro-4-methoxybenzene)sulfonyl]phenyl}-1-(pyridin-3-ylmethyl)urea]	
5 nM	137 nM	O=C(NCc1cccnc1)Nc1ccc(S(=O)(=O)N2CCCN(Cc3ccccc3)CC2)cc1 [1-[4-(4-benzyl-1,4-diazepane-1-sulfonyl)phenyl]-3-(pyridin-3-ylmethyl)urea]	
4 nM	168 nM	O=C(NCc1cccnc1)Nc1ccc(S(=O)(=O)N2CCN(C(=O)c3ccco3)CC2)cc1 [1-(4-{4-[(furan-2-yl)carbonyl]piperazine-1-sulfonyl}phenyl)-3-(pyridin-3-ylmethyl)urea]	
12 nM	88 nM	C[C@H](O)COc1ccccc1NS(=O)(=O)c1ccc(NC(=O)NCc2cccnc2)cc1 [3-[4-({2-[(2S)-2-hydroxypropoxy]phenyl}sulfamoyl)phenyl]-1-(pyridin-3-ylmethyl)urea]	
6 nM	103 nM	O=C(NCc1cccnc1)Nc1ccc(S(=O)(=O)Nc2cccc(N3CCOCC3)c2)cc1 [1-(4-{[3-(morpholin-4-yl)phenyl]sulfamoyl}phenyl)-3-(pyridin-3-ylmethyl)urea]	

SMILES	IC50 (NAMPT)	IC50 (A2780 cells; Homo sapiens, A2780, 72 h)	IC50 (A2780 cells)
COc1cccc(C2(N3CCN(S(=O)(=O)c4ccc(NC(=O)NCc5cccnc5)cc4)CC3)CCC(C)CC2)c1 (centres unmarked) [3-(4-{4-[1-(3-methoxyphenyl)-4-methylcyclohexyl]piperazine-1-sulfonyl}phenyl)-1-(pyridin-3-ylmethyl)urea]	4 nM	5 nM	
CC(C)c1ccc(CN2CCN(S(=O)(=O)c3ccc(NC(=O)NCc4cccnc4)cc3)CC2)cc1 [3-[4-(4-{[4-(propan-2-yl)phenyl]methyl[piperazine-1-sulfonyl)phenyl]-1-(pyridin-3-ylmethyl)urea]	35.8 nM		1000 to 10000 nM
